This is an account of results in US11884675B2, “Heterocyclic compounds as triggering receptor expressed on myeloid cells 2 agonists and methods of use” (AMGEN INC., priority 2020, dated 2024).

Structures are written as SMILES. pEC50: −log10 of the molar value.

Sequence of hTREM2 (Q9NZC2 19-230): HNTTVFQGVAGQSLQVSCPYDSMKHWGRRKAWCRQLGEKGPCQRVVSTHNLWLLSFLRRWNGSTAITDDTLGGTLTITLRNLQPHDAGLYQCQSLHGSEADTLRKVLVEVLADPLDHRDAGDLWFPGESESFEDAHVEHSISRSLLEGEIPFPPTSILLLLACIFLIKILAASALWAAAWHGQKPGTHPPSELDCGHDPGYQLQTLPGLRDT
Sequence of hTREM2 (O43914 22-113 partner): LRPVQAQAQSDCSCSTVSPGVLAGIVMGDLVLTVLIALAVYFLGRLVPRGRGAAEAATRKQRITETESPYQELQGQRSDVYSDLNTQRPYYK

This test concerns the target hTREM2 (Homo sapiens, UniProt Q9NZC2). The test can be described thus: TREM2 activity by cellular Syk phosphorylation (AlphaScreen/AlphaLISA) in TREM2/DAP12-HEK cells, used for Examples 1-305. Particulars: HEK293 Cells. The format is cell-based. On the set-up: expressed in transfected cells. A digest of the protocol:
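Phospho-Syk (Tyr525/526) over total Syk quantified by AlphaScreen in lysates of cloned TREM2/DAP12-overexpressing HEK293 cells after 45 min compound treatment at room temperature, 1% final DMSO. Values expressed relative to 100 nM anti-TREM2 antibody (positive) and isotype IgG (negative) controls; curves fitted with 4-parameter logistic model.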
As for `Cc1ccc2c(-c3ccc(Cl)cc3F)cc(N3CCO[C@@H](c4cnn(C)c4)C3)nc2n1` [Example 156, 4-(4-chloro-2-fluorophenyl)-7-methyl-2-((2S)-2-(1-methyl-1H-pyrazol-4-yl)-4-morpholinyl)-1,8-naphthyridine], the pEC50 was 6.30 to 7.30; the “hTREM2 Emax” value was “+++ (Emax>150 and ≤250)”.
For the molecule `Cc1cc2c(-c3ccc(Cl)cc3F)cc(N3CCO[C@@H](c4cnn(C)c4)C3)nc2nc1C` [Example 157, 5-(4-chloro-2-fluorophenyl)-2,3-dimethyl-7-((2S)-2-(1-methyl-1H-pyrazol-4-yl)-4-morpholinyl)-1,8-naphthyridine], the pEC50 was at least 7.30 and the “hTREM2 Emax” value is recorded as “++++ (Emax>250)”.
Consider `Cc1cnc2nc(N3CCO[C@@H](c4cnn(C)c4)C3)cc(-c3ccc(Cl)cc3F)c2n1` [Example 158, 8-(4-chloro-2-fluorophenyl)-2-methyl-6-((2S)-2-(1-methyl-1H-pyrazol-4-yl)-4-morpholinyl)pyrido [2,3-b]pyrazine], for which the negative-log EC50 (pEC50) was 6.30 to 7.30; the “hTREM2 Emax” value is “+++ (Emax>150 and ≤250)”.
In the case of `Cc1cnc2c(-c3ccc(Cl)cc3F)cc(N3CCO[C@@H](c4cnn(C)c4)C3)nc2n1` [Example 159, 8-(4-chloro-2-fluorophenyl)-3-methyl-6-((2S)-2-(1-methyl-1H-pyrazol-4-yl)-4-morpholinyl)pyrido [2,3-b]pyrazine], the pEC50 was 6.30 to 7.30; the “hTREM2 Emax” value is “+++ (Emax>150 and ≤250)”.
As to `Cc1nc2nc(N3CCO[C@@H](c4cnn(C)c4)C3)cc(-c3ccc(Cl)cc3F)c2nc1C` [Example 160, 8-(4-chloro-2-fluorophenyl)-2,3-dimethyl-6-((2S)-2-(1-methyl-1H-pyrazol-4-yl)-4-morpholinyl)pyrido [2,3-b]pyrazine], the pEC50 was at least 7.30 and the “hTREM2 Emax” value is reported as “++++ (Emax>250)”.
For the molecule `Cc1nc2nc(N3CCO[C@@H](c4cnn(C)c4)C3)cc(-c3ccc(F)cc3F)c2nc1C` [Example 161, 8-(2,4-difluorophenyl)-2,3-dimethyl-6-((2S)-2-(1-methyl-1H-pyrazol-4-yl)-4-morpholinyl)pyrido [2,3-b]pyrazine], the negative-log EC50 (pEC50) was at least 7.30; the “hTREM2 Emax” value is “+++ (Emax>150 and ≤250)”.
As to `Cc1nc2cc(N3CCO[C@@H](c4cnn(C)c4)C3)cc(-c3ccc(Cl)cc3F)c2nc1C` [Example 162, 5-(4-chloro-2-fluorophenyl)-2,3-dimethyl-7-((2S)-2-(1-methyl-1H-pyrazol-4-yl)-4-morpholinyl) quinoxaline], the pEC50 was at least 7.30 and the “hTREM2 Emax” value was “++++ (Emax>250)”.
For the molecule `Cc1cc([C@H]2CN(c3cc(-c4ccc(Cl)cc4F)c4nc(C)c(C)nc4c3)CCO2)ccn1` [Example 163, 5-(4-chloro-2-fluorophenyl)-2,3-dimethyl-7-((2S)-2-(2-methyl-4-pyridinyl)-4-morpholinyl) quinoxaline], the pEC50 is at least 7.30 and the “hTREM2 Emax” value is “++++ (Emax>250)”.
The matching figures for `Cc1nc2cc(N3CCO[C@@H](c4cnn(C)c4)C3)cc(-c3ccc(F)cc3F)c2nc1C` [Example 164, 5-(2,4-difluorophenyl)-2,3-dimethyl-7-((2S)-2-(1-methyl-1H-pyrazol-4-yl)-4-morpholinyl) quinoxaline]: at least 7.30 and “++++ (Emax>250)”.
On to `Cc1cc2c(-c3ccc(F)cc3F)nc(N3CCO[C@@H](c4cnn(C)c4)C3)nc2nc1C` [Example 166, 4-(2,4-difluorophenyl)-6,7-dimethyl-2((2S)-2-(1-methyl-1H-pyrazol-4-yl)-4-morpholinyl) pyrido[2,3-d]pyrimidine], for which the negative-log EC50 (pEC50) is at least 7.30 and the “hTREM2 Emax” value is recorded as “++++ (Emax>250)”.
`CCc1ccc2c(-c3ccc(F)cc3F)nc(N3CCO[C@@H](c4cnn(C)c4)C3)nc2n1` [Example 167, 4-(2,4-difluorophenyl)-7-ethyl-2((2S)-2-(1-methyl-1H-pyrazol-4-yl)-4-morpholinyl) pyrido[2,3-d]pyrimidine]: the pEC50 is 6.30 to 7.30 and the “hTREM2 Emax” value is “++++ (Emax>250)”.
Take `Cc1cc([C@H]2CN(c3nc(-c4ccc(F)cc4F)c4cc(C)c(C)nc4n3)CCO2)ccn1` [Example 168, 4-(2,4-difluorophenyl)-6,7-dimethyl-2-((2S)-2-(2-methyl-4-pyridinyl)-4-morpholinyl)pyrido[2,3-d] pyrimidine]: the pEC50 was at least 7.30 and the “hTREM2 Emax” value is listed as “++++ (Emax>250)”.
On to `Cc1cc2c(-c3ccc(F)cc3F)nc(N3CCO[C@@H](c4cnn(C5CC5)c4)C3)nc2nc1C` [Example 169, 2-((2S)-2-(1-cyclopropyl-1H-pyrazol-4-yl)-4-morpholinyl)-4-(2,4-difluorophenyl)-6,7-dimethylpyrido [2,3-d]pyrimidine], for which the pEC50 is at least 7.30; the “hTREM2 Emax” value is “+++ (Emax>150 and ≤250)”.
Regarding `Cc1nc2nc([C@@H]3CCO[C@@H](c4cnn(C)c4)C3)nc(-c3ccc(Cl)cc3F)c2nc1C` [Example 179, 4-(4-chloro-2-fluorophenyl)-6,7-dimethyl-2-((2R,4R)-2-(1-methyl-1H-pyrazol-4-yl)tetrahydro-2H-pyran-4-yl)pteridine], the pEC50 was 5.52 to 6.30 and the “hTREM2 Emax” value was “++++ (Emax>250)”.
For `Cc1cnc2c(C34CC(C(F)(F)F)(C3)C4)nc(N3CCO[C@@H](c4cnn(C5CC5)c4)C3)nc2n1` [Example 231, (S)-2-(1-cyclopropyl-1H-pyrazol-4-yl)-4-(7-methyl-4-(3-(trifluoromethyl)bicyclo[1.1.1]pentan-1-yl)pteridin-2-yl)morpholine], the pEC50 is at least 7.30; the “hTREM2 Emax” value is “+++ (Emax>150 and ≤250)”.
Turning to `Cc1cc([C@H]2CN(c3nc(C45CC(C(F)(F)F)(C4)C5)c4ncc(C)nc4n3)CCO2)ccn1` [Example 232, (S)-4-(7-methyl-4-(3-(trifluoromethyl)bicyclo[1.1.1]pentan-1-yl)pteridin-2-yl)-2-(2-methylpyridin-4-yl) morpholine], the pEC50 is at least 7.30; the “hTREM2 Emax” value was “++ (Emax>100 and ≤150)”.
Turning to `Cn1cc([C@H]2CN(c3cc4nccnc4c(-c4ccc(Cl)cc4F)n3)CCO2)cn1` [Example 233, (S)-4-(5-(4-chloro-2-fluorophenyl)pyrido[3,4-b]pyrazin-7-yl)-2-(1-methyl-1H-pyrazol-4-yl)morpholine], the pEC50 is 4.00 to 5.52; the “hTREM2 Emax” value was “+++ (Emax>150 and ≤250)”.
Consider `Cn1cc([C@H]2CN(c3cc4ncccc4c(-c4ccc(Cl)cc4F)n3)CCO2)cn1` [Example 234, (S)-4-(5-(4-chloro-2-fluorophenyl)-1,6-naphthyridin-7-yl)-2-(1-methyl-1H-pyrazol-4-yl)morpholine], for which the pEC50 is 5.52 to 6.30; the “hTREM2 Emax” value is “+++ (Emax>150 and ≤250)”.
With `Cn1cc([C@H]2CN(c3cc4ccccc4c(-c4ccc(Cl)cc4F)n3)CCO2)cn1` [Example 235, (S)-4-(1-(4-chloro-2-fluorophenyl)isoquinolin-3-yl)-2-(1-methyl-1H-pyrazol-4-yl)morpholine], the pEC50 was 4.00 to 5.52; the “hTREM2 Emax” value is “+ (Emax>45 and ≤100)”.
For `Cc1ccc2cc(N3CCO[C@@H](c4cnn(C)c4)C3)nc(-c3ccc(Cl)cc3F)c2c1` [Example 236, (S)-4-(1-(4-chloro-2-fluorophenyl)-7-methylisoquinolin-3-yl)-2-(1-methyl-1H-pyrazol-4-yl)morpholine], the pEC50 is 4.00 to 5.52; the “hTREM2 Emax” value is “+++ (Emax>150 and ≤250)”.
As for `Cc1cc2cc(N3CCO[C@@H](c4cnn(C)c4)C3)nc(-c3ccc(Cl)cc3F)c2nc1C` [Example 237, (S)-4-(8-(4-chloro-2-fluorophenyl)-2,3-dimethyl-1,7-naphthyridin-6-yl)-2-(1-methyl-1H-pyrazol-4-yl)morpholine], the pEC50 was 4.00 to 5.52; the “hTREM2 Emax” value is “+++ (Emax>150 and ≤250)”.
As to `CCc1ccc2c(-c3ccc(Cl)cc3F)nc(N3CCO[C@@H](c4cnn(C)c4)C3)cc2n1` [Example 238, (S)-4-(5-(4-chloro-2-fluorophenyl)-2-ethyl-1,6-naphthyridin-7-yl)-2-(1-methyl-1H-pyrazol-4-yl)morpholine], the pEC50 is 4.00 to 5.52; the “hTREM2 Emax” value was “+ (Emax>45 and ≤100)”.
In the case of `CCn1cc([C@H]2CN(c3cc4nc(C)ccc4c(-c4ccc(Cl)cc4F)n3)CCO2)cn1` [Example 239, (S)-4-(5-(4-chloro-2-fluorophenyl)-2-methyl-1,6-naphthyridin-7-yl)-2-(1-ethyl-1H-pyrazol-4-yl)morpholine], the pEC50 was 4.00 to 5.52; the “hTREM2 Emax” value is “+++ (Emax>150 and ≤250)”.
For `Cc1cc([C@@H]2CN(c3cc4nc(C)ccc4c(-c4ccc(Cl)cc4F)n3)CCO2)ccn1` [Example 240, (R)-4-(5-(4-chloro-2-fluorophenyl)-2-methyl-1,6-naphthyridin-7-yl)-2-(2-methylpyridin-4-yl)morpholine], the pEC50 is 4.00 to 5.52 and the “hTREM2 Emax” value is reported as “++++ (Emax>250)”.
As for `Cc1nc2nc([C@@H]3CCO[C@H](c4cnn(C5CC5)c4)C3)nc(-c3ccc(F)cc3F)c2nc1C` [Example 241, 2-((2S,4R)-2-(1-cyclopropyl-1H-pyrazol-4-yl)tetrahydro-2H-pyran-4-yl)-4-(2,4-difluorophenyl)-6,7-dimethylpteridine], the pEC50 was at least 7.30; the “hTREM2 Emax” value is “+++ (Emax>150 and ≤250)”.
Turning to `Cc1nc2nc([C@@H]3CCO[C@H](c4cnn(C)c4)C3)nc(-c3ccc(Cl)cc3F)c2nc1C` [Example 242, 4-(4-chloro-2-fluorophenyl)-6,7-dimethyl-2-((2S,4R)-2-(1-methyl-1H-pyrazol-4-yl)tetrahydro-2H-pyran-4-yl)pteridine], the pEC50 was at least 7.30; the “hTREM2 Emax” value is “+++ (Emax>150 and ≤250)”.
For the molecule `Cc1nc2nc(N3CCO[C@H]([C@@H]4CCOC4)C3)nc(-c3ccc(F)cc3F)c2nc1C` [Example 243, (R)-4-(4-(2,4-difluorophenyl)-6,7-dimethylpteridin-2-yl)-2-((R)-tetrahydrofuran-3-yl)morpholine], the pEC50 was 6.30 to 7.30 and the “hTREM2 Emax” value is listed as “++++ (Emax>250)”.
